The text below walks through data of patent US6683061B1, “Enzyme catalyzed therapeutic activation” (NewBiotics, Inc., priority 1999, dated 2004).

pIC50: −log10 of the molar value. Like-named read-outs stand apart in the source and are kept apart here. Some results are limits rather than exact numbers.

Data set [1] has as its system MCF7TDX. The experiment in a line: AlamarBlue cell proliferation assay. The note with it: 120 hours drug exposure. The data set is classed as cell-based, human. The method, then:
(§1) Cells growing exponentially were transferred to 384-well flat bottom tissue culture plates. All cell types were plated at a density of 500 cells per well in 25 μL of complete medium (RPMI 1640+10% fetal bovine serum+antibiotics/antimycotics). After 24 hours (day 0), 25 μL of complete medium containing the compounds over the dose range of 10^−3 to 10^−10 M were added in triplicate. Drug exposure time was 120 hours (day 5), after which growth inhibition was assayed. 5 μL of the redox indicator, alamarBlue, was added to each well (10% v/v). After 4 hours incubation at 37° C., fluorescence was monitored at 535 nm excitation and 595 nm emission.
(§2) Numbering in Tables 5 and 6 refer to the structures, shown infra. Results from testing using the alamarBlue assay are shown in Table 5, and results from crystal violet based assays are shown in Table 6. MCF7-TDX was derived from MCF7 breast tumor cells via selection in cell culture in the presence of Tomudex, a direct inhibitor of TS. Such selection often results in high intracellular levels of TS (Freemantle, S. J. et al. (1995)). Similarly, H630R10 is a 5FU (fluoropyrimidine) resistant colon cancer epithelial cell line derived from H630 colon cancer cells. See, Copur, S. et al. (1995). HT1080, #12, is a fibrosarcoma tumor cell line that expresses high levels of TS via a transgene introduced into HT1080 tumor cells. […]
(The colour change of resazurin is a common sign of viable cells or microbes.)

In data set [2] the test system is MCF7TDX. The data set can be described thus: Crystal violet cell proliferation inhibition assay. The note with it: read-out: Cytotoxic Activity, MCF7TDX.
Protocol: The ability of the test compounds to block proliferation of cells was determined by the crystal violet procedure.
Compounds were dissolved in dimethyl sulfoxide to a concentration of 1M. They were further diluted as necessary into DMEM cell culture medium, and subsequently into the first wells of the 96-well microtiter plate. Each concentration was tested in triplicate on the target cell line. Compound concentrations from 1 μM to 3000 μM were tested. Cells were incubated with compound for 72 hours, the plates were washed, and the cells fixed with methanol and stained with crystal violet as described in Sugarman, B. J. et al. (1985); and Antelman, D. et al. (1995).
The ability of each isolated compound to block cell proliferation was then determined by the crystal violet procedure.
The first two cell lines, TS HT1080 #12 and MCF7TDX express high levels of TS, while the other two, CCD18co and Det551, are normal cells.
In a further data set the test system is HT1080 #12. The experiment in a line: Crystal violet cell proliferation inhibition assay. The data set is classed as cell-based. The note with it: crystal violet procedure, Table 7; high TS; read-out: Cytotoxic Activity, TS HT1080 #12. From the text:
(§3) Numbering in Tables 5 and 6 refer to the structures, shown infra. Results from testing using the alamarBlue assay are shown in Table 5, and results from crystal violet based assays are shown in Table 6. MCF7-TDX was derived from MCF7 breast tumor cells via selection in cell culture in the presence of Tomudex, a direct inhibitor of TS. Such selection often results in high intracellular levels of TS (Freemantle, S. J. et al. (1995)). Similarly, H630R10 is a 5FU (fluoropyrimidine) resistant colon cancer epithelial cell line derived from H630 colon cancer cells. See, Copur, S. et al. (1995). HT1080, #12, is a fibrosarcoma tumor cell line that expresses high levels of TS via a transgene introduced into HT1080 tumor cells. Normal cell lines used in these assays include CCD18co (normal colon epithelium) and Det551 (normal skin).

In the next data set the test system is Det551. The data set can be described thus: Crystal violet cell proliferation inhibition assay. The format is cell-based, human.
Text: as §3

The next data set deals with CCd18co. The data set can be described thus: Crystal violet cell proliferation inhibition assay. The format is cell-based, human.
Text: as §3

A further data set deals with normal and tumor cells. The experiment in a line: Cell proliferation assays (alamarBlue, crystal violet), results stated in words. The format is cell-based, human. The note with it: summary of Tables 5-7. Here is the method: as §1
The data in both Tables 5 and 6 indicate that most compounds are active as phosphoramidates and nucleosides. […] Cytotoxicity results with the nucleosides, especially BVdU, NB1020™ (ClVdU) and NB1024™, are surprising since the literature teaches that 5-substituted compounds like BVdU are not efficiently monophosphorylated by human cells unless they express viral thymidine kinase. See, Balzarini, J. et al. (1985) and De Clerq, E. et al. (1997). These authors have proposed that once phosphorylated by the herpesvirus-encoded TK, the 5-substituted nucleotide derivative can bind to the TS enzyme and inactivate it. […] Alternatively, some tumor cells may have an unusually high amount, or form the normal TK enzyme (Suki, S. et al. (1995); and Romain, S. et al. (1995)), leading to a low, but sufficient activation of nucleosides to their corresponding monophosphates.

Data set [3] deals with H630R10. The experiment in a line: Amount of nucleoside and monophosphate in cells (HPLC of lysates). The data set is classed as cell-based, human. The note with it: 100 μm BVdU, 2 days treatment. The method, then:
(§4) Cells were incubated in complete media with 100 μm BVdU.

Another data set relates to MCF7. Described as above. The data set is classed as cell-based, human. The note with it: 100 μm BVdU, 2 days treatment. Here is the method:
as §4

Data set [4] concerns MCF7TDX. The description is as above. The data set is classed as cell-based, human. The conditions noted are these: 100 μm BVdU, 2 days treatment. The method, then:
as §4

Data set [5] can be described thus: Crystal violet cell proliferation inhibition assay. The data set is classed as cell-based, human. The note with it: human, crystal violet procedure, Table 7, normal cells.
Text: as §3

For data set [6], the system named is H630R10. The experiment in a line: AlamarBlue cell proliferation assay. The data set is classed as cell-based, human. The conditions noted are these: 120 hours drug exposure. Here is the method: as §1, §2
Setting [7] is: crystal violet procedure, Table 7, high TS.
Where [8] appears, read: crystal violet procedure, Table 7, normal cells, read-out: Cytotoxic Activity, Det551.
[9] abbreviates: crystal violet procedure, Table 7, normal cells, read-out: Cytotoxic Activity, CCD18co.

“5-(2-Bromovinyl)-2′-Deoxyuridine Phenyl N-Methoxy-L-alaninyl Phosphoramidate [NB1011]”: the pIC50 is 5.70 with MCF7TDX [1]; 5.38 in the data set on MCF7TDX [2] (setting [7]); 5.37 in the data set on HT1080 #12; 3.58 in the data set with Det551 (setting [8]); 3.45 with Det551 (crystal violet, 72 hours, normal skin, read-out: IC50 Det551); 3.34 in the data set with CCd18co (setting [9]). Further, the pIC50 in the data set on CCd18co (crystal violet, 72 hours, normal colon epithelium, read-out: IC50 CCD18co) was 3.39.

`O=c1[nH]c(=O)n([C@H]2C[C@H](O)[C@@H](CO)O2)cc1/C=C/C=C\Br` (single isomer, unassigned; isomer 1) [NB1024 Isomer 1, 5-(4-Bromo-1E,3Z-butadienyl)-2′-dexoyuridine]: the pIC50 with MCF7TDX [2] (setting [7]) is 5.01; in the data set with HT1080 #12 it was 5.00; in the data set on CCd18co (setting [9]) it was less than 3.52. Moreover, in the data set with normal and tumor cells, the “cytotoxic / growth inhibiting activity in words” value is “significantly greater growth inhibiting activity”.

As to `O=c1[nH]c(=O)n([C@H]2C[C@H](O)[C@@H](CO)O2)cc1/C=C/C=C/Br` (single isomer, unassigned; isomer 2) [NB1024 Isomer 2, 5-(4-Bromo-1E,3E-butadienyl)-2′-dexoyuridine], the pIC50 with MCF7TDX [2] (setting [7]), in the data set with HT1080 #12 and in the data set on Det551 (setting [8]) was less than 3.52 throughout.

Regarding `O=c1[nH]c(=O)n([C@H]2C[C@H](O)[C@@H](CO)O2)cc1/C=C/Br` [BVDU, (E)-5-(2-Bromovinyl)-2′-deoxyuridine], the “BVdU level in cell lysate” value was found to be 26.3 HPLC peak area at 300 nm in the data set on H630R10 [3], 90.8 HPLC peak area at 300 nm in the data set on MCF7 and 39.0 HPLC peak area at 300 nm in the data set with MCF7TDX [4]. In addition, the “BvdUMP/(BVdUMP + BVdU) × 100” value is given as less than 4 in the data set with H630R10 [3], 44.2 in the data set with MCF7 and 21.2 in the data set with MCF7TDX [4]. Also, the pIC50 in the data set with MCF7TDX [2] (Homo sapiens) was more than 6.10. The IC50 at 72 h in data set [5] (CCD18co cells (normal colon epithelium), read-out: Cytotoxic Activity, CCD18co) was more than 1000 µM; in [5] (Det551 cells (normal skin), read-out: Cytotoxic Activity, Det551), more than 1000 µM.

In the data set on H630R10 [6], `COC(=O)C(C)NP(=O)(OCC1OC(n2ccc(=O)[nH]c2=O)CC1O)Oc1ccccc1` (centres unmarked) [NB1025] gave a pIC50 of 3.72. Moreover, the “cytotoxic / growth inhibiting activity in words” value in the data set on normal and tumor cells is reported as “active”.

In the case of `O=c1ccn(C2CC(O)C(CO)O2)c(=O)[nH]1` (centres unmarked) [NB1026], the “cytotoxic / growth inhibiting activity in words” value in the data set on normal and tumor cells is on record as “little detectable activity”.
